Test [1] is filed under the species Mus musculus. As to conditions: BALB/c, T-cell, 100 mg/kg.
Description: Immunosuppressive activity against MAV-1 infected BALB/c mouse assessed as T cells suppression at 100 mg/kg, ip treated 8 days before infection for 4 weeks measured 14 days post infection by flow cytometry
The species entered for test [2] is Mus musculus. The following applies: BALB/c, 100 mg/kg.
Description: Immunosuppressive activity against MAV-1 infected BALB/c mouse assessed as inhibition of production of protective antibodies at 100 mg/kg, ip treated 8 days before infection for 2 weeks measured after 62 days postinfection
For test [3], the species on record is Mus musculus. The following applies: BALB/c, 100 mg/kg. The source holds these as a separate data set.
Description: Immunosuppressive activity against MAV-1 infected BALB/c mouse assessed as inhibition of production of protective antibodies at 100 mg/kg, ip treated 8 days before infection for 3 weeks measured after 62 days postinfection
Another test concerns Murine adenovirus 1. The following applies: Liver, 100 mg/kg.

This is an account of results in ChEMBL document CHEMBL1629543, “Recovery of humoral immunity is critical for successful antiviral therapy in disseminated mouse adenovirus type 1 infection” (Antimicrob Agents Chemother, 2008).

Calls of active or inactive are those of the source. The rule behind the calls is not given here.

Description for Murine adenovirus 1: Antiviral activity against MAV-1 infected in immunocompromized BALB/c mouse assessed as decrease in viral DNA load in liver at 100 mg/kg, ip treated 8 days before infection measured after 28 days post infection by RT-PCR

On to `O=P1(N(CCCl)CCCl)NCCCO1` (centres undefined), for which the inhibition result in the test filed under Mus musculus [1], in the test listed under Mus musculus [2] and in the test on Murine adenovirus 1 was “Active” each time. Moreover, the inhibition result in the test listed under Mus musculus [3] is “inactive”.
